The source of these data is article PMC11758220, “Identification of a Privileged Scaffold for Inhibition of Sterol Transport Proteins through the Synthesis and Ring Distortion of Diverse, Pseudo-Natural Products” (ACS Central Science, 2025).

One assay addresses T1, STARD1 (Homo sapiens, UniProt P49675).
T1 construct: STARD1(66-284); made in house; host or cells: E. coli BL21(DE3)
T1 sequence (P49675 66-284): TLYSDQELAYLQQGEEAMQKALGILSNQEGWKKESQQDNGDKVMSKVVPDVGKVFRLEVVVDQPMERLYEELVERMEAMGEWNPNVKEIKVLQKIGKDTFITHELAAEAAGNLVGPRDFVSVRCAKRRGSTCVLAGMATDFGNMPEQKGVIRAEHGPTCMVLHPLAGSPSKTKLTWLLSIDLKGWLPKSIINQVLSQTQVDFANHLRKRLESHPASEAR
Put plainly: Effect on intrinsic protein fluorescence, STARD1. The note with it: protein 1 µM, excitation 280 nm. The protocol: Effect of spirooxepinoindoles on intrinsic protein fluorescence
Figure S12: Spirooxepinoindoles 21a and 15f affect intrinsic protein fluorescence in dose-dependent fashion:
Respective proteins (1 µM) were incubated with the compounds at different doses. Proteins were excited at 280 ± 10 nm and fluorescence spectra were measured from 315 ± 20 nm to 600 ± 20 nm with a step size of 2 nm. A) STARD1 and 21a. B) ORP1 and 21a. C) ORP2 and 21a. D) ORP2 and 15f.
(1 picture or pasted object on this page, not shown here)
Superdex 75 pg (Cytiva) using an ÄKTA Explorer (Cytiva) in buffer containing 10 mM Tris -HCl, pH 8, 150 mM NaCl, 5 % glycerol and 2 mM DTT.
Fluorescence intensity and polarisation
Fluorescence intensity and polarisation (FP) experiments were performed in a buffer containing 20 mM HEPES pH 7.5, 300 mM NaCl, 0.01 %v/v Tween-20, 0.5% glycerol and 2 mM DTT in a final volume of 30 µl in black, flat-bottom, non-binding 384-well plates (Corning). All compounds were dispensed using the LabCyte Echo 550 Liquid handler. […] For competition experiments, 20 nM 22-NBD-cholesterol or 80 nM 25-NBD-cholesterol was mixed with protein and incubated with desired concentrations of screening compounds (Table S4) The fluorescence polarisation signal was measured using a Spark Cyto multimode microplate reader (Tecan) with filters set at 485 ± 20 nm for excitation and at 535 ± 20 nm for emission. […]

A further assay concerns the target T2, STARD3 (Homo sapiens, UniProt Q14849).
T2 construct: STARD3(216-444); made in house; host or cells: E. coli BL21(DE3)
T2 sequence (Q14849 216-444): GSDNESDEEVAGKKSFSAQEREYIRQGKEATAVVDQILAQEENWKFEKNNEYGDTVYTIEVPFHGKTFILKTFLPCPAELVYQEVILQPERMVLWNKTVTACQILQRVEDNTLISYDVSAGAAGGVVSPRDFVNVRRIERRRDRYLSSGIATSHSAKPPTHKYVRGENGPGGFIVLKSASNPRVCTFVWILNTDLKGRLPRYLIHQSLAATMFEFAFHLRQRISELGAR
The arrangement: method as in Depta et al.[43]. The note with it: data reproduced; ref Depta et al.[43]; read-out: STARD3 Kd,app (DSF); cited from earlier work.

A further assay has as its target T3, STARD4 (Homo sapiens, UniProt Q96DR4, C75S).
T3 construct: STARD4(2-205; C75S); made in house; host or cells: E. coli BL21(DE3)
T3 sequence (Q96DR4 2-205 C75S): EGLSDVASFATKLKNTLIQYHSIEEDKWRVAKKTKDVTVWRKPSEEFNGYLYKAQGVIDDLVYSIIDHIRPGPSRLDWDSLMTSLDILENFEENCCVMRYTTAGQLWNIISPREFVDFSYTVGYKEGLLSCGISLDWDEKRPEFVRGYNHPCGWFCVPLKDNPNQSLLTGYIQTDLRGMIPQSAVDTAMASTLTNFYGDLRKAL
The arrangement: method as in Depta et al.[43]. To be noted: data reproduced; ref Depta et al.[43]; read-out: STARD4 Kd,app (DSF); cited from earlier work.

The target of a further assay is T4, Aster-A (Homo sapiens, UniProt Q96CP6).
T4 construct: Aster-A(359-547); GST (PreScission-cleavable) (N, cleaved yes); made in house; host or cells: E. coli OverExpress C41
T4 sequence (Q96CP6 359-547): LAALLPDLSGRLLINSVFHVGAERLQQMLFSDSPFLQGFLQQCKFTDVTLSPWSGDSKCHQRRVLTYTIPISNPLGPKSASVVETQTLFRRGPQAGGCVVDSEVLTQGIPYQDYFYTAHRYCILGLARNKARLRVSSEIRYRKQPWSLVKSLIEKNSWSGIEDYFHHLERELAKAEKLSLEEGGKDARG
The assay is described as follows: Microplate-based cholesterol transfer assay between liposomes (FRET). The class given is biochemical. To be noted: Aster-A 125 nM, compound 10 μM, FRET with Rh-DHPE.

Turning to `C[C@]12CC[C@@H]3C[C@H]1CC[C@@]21C(=Nc2ccc(-c4ccccc4)cc21)O3` [Compound 21a], at STARD1, the “Quenching of intrinsic fluorescence of STARD1” value is reported as “dose-dependently quenches”.
Take `CCN(CC)CCO[C@H]1CC[C@@]2(C)C(=CC[C@@H]3[C@@H]2CC[C@]2(C)C(=O)CC[C@@H]32)C1` [Compound U18666A, reference compound]: the Kd on STARD3 and at STARD4 was more than 30 µM in each case.
On to `CC12CCC3CC1CCC21C(=Nc2ccc(N4CCOCC4)cc21)O3` (single isomer, unassigned; (-)) [(−)-19a], for which the “Inhibition of Aster-A mediated transport of 23-BODIPY-cholesterol between synthetic liposomes” value at Aster-A is on record as “inhibited”.
